The source of these data is ChEMBL document CHEMBL1201862, “PubChem BioAssay data set” (2004).

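Growth conditions: 96-well plates. Treatment: test compound, 48 hours, 5 concentrations. Analysis: linear interpolation between bracketing concentrations; unreached endpoints set to highest concentration. GI50 is the concentration that inhibits growth by half.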 Activity calls are given as the source filed them. No stated cut-off is given here; in the data, active = GI50 up to about 1.1 µM and inactive = higher. Bounds are passed on as bounds.

Holding throughout (assay): NCI-60 cell line screen, 48 h
The subject of assay [1] is NCI-H522.
The subject of assay [2] is NCI-H23.
The test system of assay [3] is OVCAR-5.
Assay [4] has as its system UACC-257.
Assay [5] deals with OVCAR-8.
Assay [6] deals with A549.
For assay [7], the system named is HL-60.
Assay [8] deals with MDA-MB-435.
The subject of assay [9] is 786-0.
Assay [10] deals with MOLT-4.
The test system of assay [11] is U-251.
Assay [12] relates to UACC-62.
Assay [13] deals with M14.
In assay [14] the test system is CCRF-CEM.
In assay [15] the test system is HCC 2998.
The test system of assay [16] is OVCAR-3.
The test system of assay [17] is CAKI-1.
For assay [18], the system named is ACHN.
Assay [19] has as its system SNB-19.
Assay [20] concerns SNB-75.

Regarding `COc1cc(C2SCC(=O)N2Cc2ccccc2)cc(OC)c1OC` (centres undefined), the GI50 in assay [1] is 90.4 µM (inactive); in [2], > 100 µM (inactive); in assay [3], > 100 µM (inactive); in [4], > 100 µM (inactive); in assay [5], > 100 µM (inactive); in assay [6], > 100 µM (inactive). The GI50 in [7] was > 100 µM (inactive); in assay [8], > 100 µM (inactive); in [9], > 100 µM (inactive); in assay [10], > 100 µM (inactive); in assay [11] it was > 100 µM (inactive); in assay [12], 97.9 µM (inactive). The GI50 in assay [13], in [14], in assay [15], in assay [16], in assay [17] and in assay [18] was > 100 µM (inactive) throughout. Further, the GI50 in assay [19] was > 100 µM (inactive).

In the case of `COc1cc2cc(C(=O)N3CC(COS(C)(=O)=O)c4ccc(O)cc43)[nH]c2c(OC)c1OC` (centres undefined), the GI50 in assay [1] was < 0.0001 µM (active); in assay [2] it was < 0.0001 µM (active); in assay [3], 0.000536 µM (active); in assay [4], 0.000537 µM (active); in assay [5], < 0.0001 µM (active); in assay [6] it was < 0.0001 µM (active). Moreover, the GI50 is < 0.0001 µM (active) in assay [7]; < 0.0001 µM (active) in [8]; 0.000172 µM (active) in assay [20]; < 0.0001 µM (active) in assay [9]; < 0.0001 µM (active) in assay [10]; < 0.0001 µM (active) in assay [11]. Further, the GI50 is < 0.0001 µM (active) in assay [12]; < 0.0001 µM (active) in assay [13]; < 0.01 µM (active) in assay [14]; < 0.0001 µM (active) in assay [15]; < 0.0001 µM (active) in assay [16]; < 0.0001 µM (active) in [18]. For the same molecule, the GI50 in assay [19] was < 0.0001 µM (active).

As to `O=c1[nH]c(=O)n(C2CC(O)C(CO)O2)c2nc3ccc4ccccc4c3nc12` (centres undefined), the GI50 in assay [1] is 45.6 µM (inactive); in assay [2] it was > 100 µM (inactive); in assay [3], > 100 µM (inactive); in assay [4], > 100 µM (inactive); in [5] it was 79.1 µM (inactive); in assay [6], > 100 µM (inactive). Moreover, the GI50 in [8] is > 100 µM (inactive); in [20], 52.8 µM (inactive); in assay [9] it was 74.3 µM (inactive); in [10], 24.5 µM (inactive); in assay [11], 33.7 µM (inactive); in assay [12] it was 56.9 µM (inactive). Moreover, the GI50 was > 100 µM (inactive) in assay [13]; 34.2 µM (inactive) in assay [14]; 59 µM (inactive) in assay [15]; > 100 µM (inactive) in [16]; > 100 µM (inactive) in assay [17]; > 100 µM (inactive) in assay [18]. In addition, in assay [19], the GI50 was 30.5 µM (inactive).

For `CC(C)/C(Cl)=N\OC(=O)NNc1ccccc1`, the GI50 was 12.6 µM (inactive) in [1]; 26.8 µM (inactive) in assay [2]; > 100 µM (inactive) in assay [3]; 1.3 µM (inactive) in assay [4]; 0.168 µM (active) in assay [5]; 0.0721 µM (active) in assay [6]. In addition, the GI50 was 1 µM (active) in [8]; > 100 µM (inactive) in assay [20]; 29 µM (inactive) in assay [9]; < 0.01 µM (active) in [10]; 37.6 µM (inactive) in assay [11]; 3.47 µM (inactive) in [13]. Besides, the GI50 in [14] was < 0.0333 µM (active); in assay [15] it was 44.9 µM (inactive); in assay [16], > 35.8 µM (inactive); in assay [17], 14.8 µM (inactive); in assay [18], 14.1 µM (inactive); in assay [19], 73.3 µM (inactive).

On to `OCCOCn1cc(Cn2ncc3c(SCc4ccccc4)ncnc32)nn1`, for which the GI50 in assay [1] was 25.4 µM (inactive); in assay [2] it was 38.3 µM (inactive); in assay [3], 79.3 µM (inactive); in assay [4], 53.7 µM (inactive); in [5], 91.8 µM (inactive); in [6], 40.3 µM (inactive). Also, the GI50 was 13.7 µM (inactive) in assay [7]; 15.5 µM (inactive) in assay [8]; 46 µM (inactive) in [20]; 48.4 µM (inactive) in assay [9]; 14.4 µM (inactive) in assay [10]; 44.1 µM (inactive) in assay [11]. Also, the GI50 was 37.1 µM (inactive) in [12]; 27.3 µM (inactive) in assay [13]; 51.1 µM (inactive) in assay [15]; 44.8 µM (inactive) in assay [16]; 48.4 µM (inactive) in [17]; 99.3 µM (inactive) in [18]. The GI50 in [19] is 85.7 µM (inactive).

In the case of `C=CCOC(C)(C)C1=CCC(C)CC1` (centres undefined), the GI50 in assay [1], in [2], in assay [3], in assay [4], in assay [5] and in assay [6] was > 100 µM (inactive) each time. Besides, the GI50 in assay [7], in assay [8], in assay [20], in assay [9], in assay [10] and in [11] was > 100 µM (inactive) in each case. Besides, the GI50 in assay [12], in [13], in assay [15], in assay [16], in assay [17] and in assay [18] was > 100 µM (inactive) each time. Also, the GI50 in assay [19] was > 100 µM (inactive).

Regarding `Cc1c2oc(=O)c(C#N)cc2c2ccccn12`, the GI50 in assay [2] was 7.64 µM (inactive); in assay [3], > 100 µM (inactive); in assay [4], > 100 µM (inactive); in assay [5], > 100 µM (inactive); in [6], > 100 µM (inactive); in assay [7], > 100 µM (inactive). Also, the GI50 in assay [8] is > 100 µM (inactive); in [20] it was > 100 µM (inactive); in assay [9] it was > 100 µM (inactive); in assay [10], > 100 µM (inactive); in [11], 99.3 µM (inactive); in [12] it was > 100 µM (inactive). Besides, the GI50 in [13] was 70.1 µM (inactive); in assay [14] it was > 100 µM (inactive); in assay [15], > 100 µM (inactive); in assay [16], 17.3 µM (inactive); in [17] it was 62.8 µM (inactive); in assay [18], > 100 µM (inactive). Also, the GI50 in [19] was > 100 µM (inactive).

Take `CC1=CC(=O)CC(C)(C)C1/C=C/C(C)=C/C=C/C(C)=C/C=C/C=C(C)/C=C/C=C(C)/C=C/C1=C(C)CC(O)CC1(C)C` (centres undefined): the GI50 was 23.2 µM (inactive) in assay [1]; 27.9 µM (inactive) in assay [2]; 57.3 µM (inactive) in [3]; 37.7 µM (inactive) in [4]; 32.2 µM (inactive) in assay [5]; 18.6 µM (inactive) in [7]. Moreover, the GI50 in assay [8] is 25 µM (inactive); in assay [9], 22 µM (inactive); in [10], 0.0853 µM (active); in assay [11], 37.8 µM (inactive); in assay [13] it was 33 µM (inactive); in assay [14], 24.9 µM (inactive). Further, the GI50 in assay [15] is 23.8 µM (inactive); in assay [16] it was 25.2 µM (inactive); in assay [17], 39.3 µM (inactive); in assay [18], 28.6 µM (inactive).

`CCCc1nc2c(n1CC)C(=O)c1ccccc1C2=O`: the GI50 in assay [1] was 24.3 µM (inactive); in assay [2], 39.4 µM (inactive); in [3], > 100 µM (inactive); in assay [4] it was 18 µM (inactive); in assay [6], 46.5 µM (inactive); in [7], 44.4 µM (inactive). Besides, the GI50 in assay [8] was 17.5 µM (inactive); in assay [20] it was 24.8 µM (inactive); in assay [9], > 100 µM (inactive); in [10], 17 µM (inactive); in assay [11], 59.3 µM (inactive); in [12], 26 µM (inactive). In addition, the GI50 in assay [13] was 33.2 µM (inactive); in [14], 24.5 µM (inactive); in [15] it was 30.8 µM (inactive); in assay [16], 32.5 µM (inactive); in assay [18], 40.3 µM (inactive); in assay [19], 86.9 µM (inactive).

`O=C(Nn1c(-c2ccccc2)nc2ccccc2c1=O)c1ccc(Cl)cc1`: the GI50 in [1] was 50.6 µM (inactive); in assay [2], 95.1 µM (inactive); in assay [3], > 100 µM (inactive); in assay [4], > 100 µM (inactive); in [5], > 100 µM (inactive); in assay [6], 67.9 µM (inactive). Besides, the GI50 in [7] is > 100 µM (inactive); in assay [8] it was 91.2 µM (inactive); in [20], 27.1 µM (inactive); in assay [9] it was > 100 µM (inactive); in [10] it was 59.6 µM (inactive); in assay [11], 84.3 µM (inactive). The GI50 is 48.3 µM (inactive) in assay [12]; > 100 µM (inactive) in assay [13]; > 100 µM (inactive) in [14]; > 100 µM (inactive) in [15]; 91.6 µM (inactive) in [16]; 94.2 µM (inactive) in assay [18]. In addition, the GI50 in [19] is > 100 µM (inactive).

`Cc1ccc(S(=O)(=O)NC(=O)Nc2c(S(N)(=O)=O)cc(S(N)(=O)=O)c(Cl)c2Cl)cc1`: the GI50 in [1], in [2], in [3], in assay [4], in assay [5] and in assay [6] was > 100 µM (inactive) throughout. For the same molecule, the GI50 in assay [7], in assay [8], in assay [9], in assay [10], in assay [11] and in assay [12] was > 100 µM (inactive) throughout. For the same molecule, the GI50 in assay [13], in assay [14], in [15], in [16], in [17] and in assay [18] was > 100 µM (inactive) in each case. The GI50 in assay [19] was > 100 µM (inactive).
